Patent US11180461B2, “Triazoles as Kv3 inhibitors” (AUTIFONY THERAPEUTICS LIMITED, priority 2012, dated 2021)

Tests used:
[1] = Determination of in vivo pharmacokinetic parameters (blood and brain) in rats, with and without Elacridar; conditions: rat, oral 1 mg/kg
Method: Adult male rats (Charles River, Italy) were dosed with test compound orally at 1 mg/kg (5 ml/kg, in 5% v/v DMSO, 0.5% w/v HPMC in water) and intravenously at 0.5 mg/kg (2 ml/kg, in 5% v/v DMSO 40% w/v PEG400 in saline). After oral administration, blood samples were collected under deep Isofluorane anesthesia from the portal vein and heart of each rat (1 rat per time point). After intravenous administration, serial blood samples were collected from the lateral tail vein of each rat. A further group of rats (n=1 per test compound) received a single intravenous administration of the PgP transport inhibitor, Elacridar (3 mg/kg) shortly before the oral administration of the test compound at 1 mg/kg, as above. Blood and brain samples were collected at a single timepoint of 0.5 h after dose administration for these animals. In all cases, blood samples were collected into potassium EDTA tubes.
Blood and brain samples were assayed for test compound concentration using a method based on protein precipitation with acetonitrile followed by HPLC/MS-MS analysis with an optimized analytical method.
The concentrations of test compound in blood (expressed as ng/ml) and brain (expressed as ng/g) at the different time points following either oral or intravenous dosing were analysed using a non-compartmental pharmacokinetic model using WinNonLin Professional version 4.1. The following parameters were drived:
Intravenous dosing: Maximum concentration over time (Cmax), integrated concentration over time (AUC), clearance (Clb), volume of distribution (Vss) and half-life (t1/2).
Oral dosing: Cmax, time of maximum concentration (Tmax), AUC, bioavailability (F %), fraction absorbed (Fa %), blood to brain ratio (AUC BB), and Fold-change in AUC BB in the presence of Elacridar.

[2] = target: T1, human Kv3.2 channels (hKv3.2) (Homo sapiens, UniProt Q96PR1); test: hKv3.2 recombinant cell assay, IonWorks Quattro planar array electrophysiology; type: cell-based; conditions: activity quantified by EC50
T1 construct: expressed in transfected cells
T1 sequence (Q96PR1 1-638): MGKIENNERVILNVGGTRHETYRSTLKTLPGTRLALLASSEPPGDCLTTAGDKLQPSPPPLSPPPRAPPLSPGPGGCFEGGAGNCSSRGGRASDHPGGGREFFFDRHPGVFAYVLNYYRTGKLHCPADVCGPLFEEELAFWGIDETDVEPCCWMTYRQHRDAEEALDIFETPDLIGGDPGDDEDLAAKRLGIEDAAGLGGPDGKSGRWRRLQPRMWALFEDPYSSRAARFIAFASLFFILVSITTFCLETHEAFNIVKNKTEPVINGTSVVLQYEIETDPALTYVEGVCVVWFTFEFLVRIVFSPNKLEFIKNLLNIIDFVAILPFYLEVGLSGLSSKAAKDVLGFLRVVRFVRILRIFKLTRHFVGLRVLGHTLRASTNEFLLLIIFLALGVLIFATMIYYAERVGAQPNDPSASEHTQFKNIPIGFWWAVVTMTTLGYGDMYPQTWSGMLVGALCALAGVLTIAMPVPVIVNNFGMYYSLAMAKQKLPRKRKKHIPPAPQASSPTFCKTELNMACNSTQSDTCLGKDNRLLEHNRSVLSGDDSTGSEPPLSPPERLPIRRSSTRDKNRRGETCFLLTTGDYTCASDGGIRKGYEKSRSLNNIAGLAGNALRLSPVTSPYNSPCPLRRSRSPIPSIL
Text: The ability of the compounds of the invention to modulate the voltage-gated potassium channel subtypes Kv3.2/3.1 may be determined using the following assay. The assay may also be used to determine the ability of compounds of the invention to modulate the voltage-gated potassium channel Kv3.3. Analogous methods may be used to investigate the ability of the compounds of the invention to modulate other channel subtypes.
To assess compound effects on human Kv3.2 channels (hKv3.2), a stable cell line expressing human Kv3.2 channels (hKv3.2) was created by transfecting Chinese Hamster Ovary (CHO)—K1 cells with a pCIH5-hKv3.2 vector. Cells were cultured in DMEM/F12 medium supplemented by 10% Foetal Bovine Serum, 1× non-essential amino acids (Invitrogen) and 500 ug/ml of Hygromycin-B (Invitrogen). Cells were grown and maintained at 37° C. in a humidified environment containing 5% CO2 in air. […]
Experiments were conducted at room temperature using IonWorks Quattro™ planar array electrophysiology technology (Molecular Devices Corp.) with PatchPlate™ PPC. […] Planar electrode hole resistances (Rp) were determined by applying a 10 mV voltage step across each well. […] Test pulses protocol may be performed in the absence (pre-read) and presence (post-read) of the test compound. Pre- and post-reads may be separated by the compound addition followed by a 3 minute incubation. […]

AUC BB relative to Reference Example 87 and Reference Example 88 of WO2011069951A1 ([1]; AUC BB from blood and brain): at least two fold
change in AUC BB in the presence of Elacridar ([1]; Elacridar 3 mg/kg i.v., blood and brain at 0.5 h, p-glycoprotein interaction): limited change
Structure (SMILES): Cc1n[nH]c(=O)n1-c1ccc(Oc2cccc3c2C2(CC2)CO3)nc1 [Example 15, 5-methyl-4-[6-(spiro[1-benzofuran-3,1′-cyclopropan]-4-yloxy)pyridin-3-yl]-2,4-dihydro-3H-1,2,4-triazol-3-one]
selectivity for modulation of Kv3.2 channels over Kv3.1 channels [2]: demonstrates selectivity for Kv3.2 channels
